Earlier results as cited in publication PMC8018653, “Gender-based differences in brain and plasma pharmacokinetics of letrozole in sprague-dawley rats: Application of physiologically-based pharmacokinetic modeling to gain quantitative insights” (PLoS ONE, 2021).

Test system: P-glycoprotein (P-gp)
Settings: cited from earlier work

## CC(C)(C#N)c1cc(Cn2cncn2)cc(C(C)(C)C#N)c1 [anastrozole]
  substrate for the efflux transporter P-glycoprotein (P-gp): substrate
